Data from publication PMC11522928 (JACS Au, 2024).

What was measured:
chick embryos = assay: Embryo survival after dosing on the CAM
[1] = system: chick embryos given CoCl2; assay: CoCl2 ischemia / hypoxia study, embryo survival; assay type: in vivo, Gallus gallus domesticus; settings: CoCl2 hexahydrate 1.2 mg, 0.54 M
[2] = system: chick chorioallantoic membrane (CAM) vasculature; assay: Chick chorioallantoic membrane; assay type: in vivo, Gallus gallus domesticus; settings: 0.75 mg/kg (18.87 µM; antibody 1 mg/mL), n = 2-3, 24 h

COC(=O)N[C@@H](Cc1ccccc1)C(=O)N[C@@H](Cc1ccc(NS(=O)(=O)O)cc1)c1csc(-c2cccs2)n1 [Razuprotafib]
embryo survival (chick embryos; dosed at 400 μM, n = 2): 50%
lethality, embryos dead / embryos tested (chick embryos; dosed at 40 mM on the CAM): 7/8

O.O.O.O.O.O.[Cl-].[Cl-].[Co+2] [CoCl2, CoCl2 hexahydrate]
mortality of embryos treated only with CoCl2 ([1]; 32× LD50, 12 h, n = 4): 100%
mortality of embryos treated only with CoCl2 ([1]; 32× LD50, 24 h, n = 8): 100%

B1: Ang-1: human Ang-1 protein (Gibco) (protein, UniProt Q15389 16-498, looked up)
Angiopoietin-1: HIGCSNQRRSPENSGRRYNRIQHGQCAYTFILPEHDGNCRESTTDQYNTNALQRDAPHVEPDFSSQKLQHLEHVMENYTQWLQKLENYIVENMKSEMAQIQQNAVQNHTATMLEIGTSLLSQTAEQTRKLTDVETQVLNQTSRLEIQLLENSLSTYKLEKQLLQQTNEILKIHEKNSLLEHKILEMEGKHKEELDTLKEEKENLQGLVTRQTYIIQELEKQLNRATTNNSVLQKQQLELMDTVHNLVNLCTKEGVLLKGGKREEEKPFRDCADVYQAGFNKSGIYTIYINNMPEPKKVFCNMDVNGGGWTVIQHREDGSLDFQRGWKEYKMGFGNPSGEYWLGNEFIFAITSQRQYMLRIELMDWEGNRAYSQYDRFHIGNEKQNYRLYLKGHTGTAGKQSSLILHGADFSTKDADNDNCMCKCALMLTGGWWFDACGPSNLNGMFYTAGQNHGKLNGIKWHYFKGPSYSLRSTTMMIRPLDF
whether CAM results recapitulate those of KU04212, in words [2]: None of these agents gave results consistent with KU04212
